Measured values published in the supplement of paper PMC5412046.
Counter-ions that a name gives are not always drawn.

Experiments:
[1] = system: SB.mhdgc-1; experiment: viability at highest tested concentration (MAXR) relative to DMSO; higher = less cytotoxic; settings: SB.mhdgc-1 (hereditary c.1380delA CDH1 gastric cancer)
Outline: (§1)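 Viability values are normalised to DMSO and given either at the highest concentration or as trapezoidal area under the curve. The assay used 500 hereditary or sporadic patient-derived gastric cancer cells in 5 μL medium per 1536 well, dosed by pintool with 23 nL of compound in DMSO at 11 threefold-diluted concentrations. CellTiter-Glo was added 48 h later for 30 min at room temperature, followed by luminescence reading on a ViewLux.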

[2] = system: SB.msgc-1; experiment: as above; settings: SB.msgc-1 (sporadic gastric cancer)
Outline: as §1

[3] = system: SB.mhdgc-1; experiment: area under the dose-response curve of % viability (trapezoidal, 11 doses) (% viability x log10 concentration); higher = less cytotoxic; settings: SB.mhdgc-1 (hereditary c.1380delA CDH1 gastric cancer)
Outline: as §1

[4] = system: SB.msgc-1; experiment: as above; settings: SB.msgc-1 (sporadic gastric cancer)
Outline: as §1

Structure (SMILES) | viability [1] [%] | viability [2] [%] | area under the dose-response curve [3] | area under the dose-response curve [4]
CN1\C=N/C2=CC=C(NC3=CC(=CC=C3C)NC(=O)C4=CC(=CC=C4)C(C)(C)C#N)C=C2C1=O [AZ-628] (top concentration 46.0829 µM) | 52.6 | 57.2 | 438 | 488
O=C(O)c1ccc(-c2c[nH]c3ncc(-c4ccccc4)cc23)cc1C1CCCC1 (top concentration 46.0829 µM) | 116 | 89 | 484 | 474
CC(C)(C)c1nc(-c2cccc(N[S+](=O)([O-])c3c(F)cccc3F)c2F)c(-c2ccnc(N)n2)s1 [Dabrafenib] (top concentration 46.0829 µM) | 15 | 38.3 | 442 | 484
CC/1=C/N([C@@H]2C[C@@H](O)[C@H](CO)O2)C(=O)NC1=O [Telbivudine] (top concentration 46.0829 µM) | 57.1 | 118 | 357 | 483
CC(C)C[C@H](NC(=O)CNC(=O)c1cc(Cl)ccc1Cl)B(O)O [Ixazomib] (top concentration 46.0829 µM) | 2.83 | 1.83 | 306 | 234
CCc1cccc(CC)c1NC(=O)N1Cc2[nH]nc(NC(=O)c3ccc(N4CCN(C)CC4)cc3)c2C1 (top concentration 46.0829 µM) | 65.1 | 59 | 423 | 505
NC(=O)c1cccc(-c2cccc(OC(=O)NC3CCCCC3)c2)c1 [KDS-4103] (top concentration 46.0829 µM) | 51.6 | 73.9 | 463 | 544
N=C(N)Nc1ccc(C(=O)Oc2ccc3cc(C(=N)N)ccc3c2)cc1 [Nafamostat mesilate] (top concentration 46.0829 µM) | 93.1 | 94.3 | 467 | 518
CCC[C@@H](C=O)NC(=O)[C@H](CC(C)C)NC(=O)[C@H](CC(C)C)NC(=O)OCc1ccccc1 [MG-115] (top concentration 46.0829 µM) | 4.83 | 4.73 | 350 | 361
CCC1=C2CN3C(=O)\C4=C(/C=C3/C2=NC5=CC=C(O)C=C15)[C@@](O)(CC)C(=O)OC4 [SN-38] (top concentration 46.0829 µM) | 57.1 | 25 | 227 | 265
N[C@@H](Cc1cc(I)c(Oc2cc(I)c(O)c(I)c2)c(I)c1)C(=O)O [L-Thyroxine] (top concentration 46.0829 µM) | 68.1 | 98.7 | 467 | 555
CCCCC(=O)O[C@]1(C(=O)CO)[C@H](C)C[C@H]2[C@@H]3CCC4=CC(=O)C=C[C@]4(C)[C@@]3(F)[C@@H](O)C[C@@]21C [Betamethasone valerate] (top concentration 46.0829 µM) | 110 | 102 | 478 | 543
CCC(C1CCC(C)C(O1)C(C)C(O)C(C)C(=O)C(CC)C2OC\3(O[C@]4(CC[C@@](C)(O4)C5CC[C@@](O)(CC)C(C)O5)C(O)\C=C3)C(C)CC2C)C([O-])=O (stereo partly specified) [Salinomycin] (top concentration 46.0829 µM) | 8.12 | 23.7 | 432 | 334
CCc1c(C(=O)C(N)=O)c2c(OCC(=O)O)cccc2n1Cc1ccccc1 [Varespladib] (top concentration 46.0829 µM) | 49.9 | 55.3 | 543 | 523
O=C(O)C(=O)c1cn(Cc2ccccc2)c2ccc(-c3ccc(OC(F)(F)F)cc3)cc12 [Tiplasinin] (top concentration 46.0829 µM) | 102 | 72.1 | 597 | 468
CC(C)(C)C(=O)Oc1ccc2c(c1)nc(NC(=O)c1cccc([N+](=O)[O-])c1)n2CCCO (top concentration 46.0829 µM) | 53.7 | 66.2 | 491 | 519
CCC(=O)NC[C@H](Cc1ccc(OCCc2nc(-c3ccccc3)oc2C)cc1)N/C(C)=C\C(=O)c1ccc(C(F)(F)F)cc1 [GW-6471] (top concentration 46.0829 µM) | 13.1 | 36.7 | 447 | 452
N[S+](=O)([O-])c1cc2c(cc1Cl)NCN[S+]2(=O)[O-] [Hydrochlorothiazide] (top concentration 46.0829 µM) | 66 | 110 | 524 | 538
CN[C@@H]1Cc2cccc3[nH]c(=O)n(c23)C1 [Sumanirole maleate] (top concentration 46.0829 µM) | 84.2 | 91.7 | 508 | 522
